In patent US20240409585A1, “MACROCYCLIC IMMUNOMODULATORS” (priority 2021, published 2024):
Bridge positions count the residues as written; N and C are the ends. Square brackets hold non-standard residues; d marks the D form. Peptide text beside a SMILES is read from it. * marks the point of attachment. Phe(3,4-Cl2) = N[C@@H](Cc1ccc(Cl)c(Cl)c1)C(=O)O; Phe(4-COOH) = N[C@@H](Cc1ccc(C(=O)O)cc1)C(=O)O; Bip = N[C@@H](Cc1ccc(-c2ccccc2)cc1)C(=O)O; Phe(4-CN) = N#Cc1ccc(C[C@H](N)C(=O)O)cc1; Phe(3-Me) = Cc1cccc(C[C@H](N)C(=O)O)c1; 1Nal = N[C@@H](Cc1cccc2ccccc12)C(=O)O; dBta = N[C@H](Cc1csc2ccccc12)C(=O)O; 3Pal = N[C@@H](Cc1cccnc1)C(=O)O; 4Pal = N[C@@H](Cc1ccncc1)C(=O)O; d4Pal = N[C@H](Cc1ccncc1)C(=O)O; Cha = N[C@@H](CC1CCCCC1)C(=O)O; Cit = NC(=O)NCCC[C@H](N)C(=O)O; Carboxymethyl = O=C(O)C*; NMeA = CN[C@@H](C)C(=O)O; Pra = C#CC[C@H](N)C(=O)O; Dab = NCC[C@H](N)C(=O)O

Molecular target: T1, PE-labeled human PD-L1-Ig binding to Jurkat cell line over-expressing human PD-1 (Jurkat-PD-1) (Homo sapiens, UniProt Q15116)
T1 construct: expressed in transfected cells; host or cells: Jurkat
T1 sequence (Q15116 25-288): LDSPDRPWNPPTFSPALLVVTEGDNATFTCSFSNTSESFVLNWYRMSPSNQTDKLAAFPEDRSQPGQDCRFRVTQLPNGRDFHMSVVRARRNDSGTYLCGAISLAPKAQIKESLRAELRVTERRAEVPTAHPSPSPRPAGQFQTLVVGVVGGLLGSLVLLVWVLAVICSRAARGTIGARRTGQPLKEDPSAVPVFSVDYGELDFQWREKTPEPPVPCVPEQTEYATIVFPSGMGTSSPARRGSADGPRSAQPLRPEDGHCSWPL
Assay: Jurkat-PD-1 Cell Binding High-Content Screening Assay (CBA): Method 1
Settings: Jurkat-hPD-1 cells, PE-labeled PD-L1-Ig 20 nM final; read-out: Jurkat HPDL1 PD1 IC50 (uM) (Method 1)

| Structure (SMILES) | IC50 [µM] |
| --- | --- |
| CC(C)C[C@@H]1NC(=O)[C@H](CCN)NC(=O)[C@@H](CC(C)C)NC(=O)[C@H](C)N(C)C(=O)[C@H](CCCNC(N)=O)NC(=O)[C@H](Cc2ccc(-c3ccccc3)cc2)NC(=O)[C@H](C(C)C)NC(=O)[C@H](Cc2c[nH]c3ccccc23)NC(=O)[C@H](CC(=O)O)NC(=O)[C@H](Cc2ccncc2)NC(=O)[C@H](Cc2cccnc2)NC(=O)CSC[C@@H](C(=O)N[C@@H](C)C(N)=O)NC(=O)[C@H]([C@@H](C)O)NC(=O)[C@H](C(C)C)NC1=O [Compound 1333] ({CH2CO}-[3Pal][4Pal]DWV[Bip][Cit][NMeA][dL][Dab]LVTCA-NH2; thioether N-14) | 0.02 |
| Cc1cccc(C[C@@H]2NC(=O)[C@H](CC(=O)O)NC(=O)[C@H](Cc3ccc(C(=O)O)cc3)NC(=O)[C@H](Cc3ccc(OCC(=O)O)cc3)NC(=O)CSC[C@@H](C(N)=O)NC(=O)[C@H](CCCCN)NC(=O)[C@H](C(C)C)NC(=O)[C@H](CC(C)C)NC(=O)[C@H](CC(N)=O)NC(=O)[C@@H](CC(C)C)NC(=O)[C@H](C)N(C)C(=O)[C@H](C(C)C)NC(=O)[C@H](Cc3ccc(-c4ccccc4)cc3)NC(=O)[C@H](CC(C)C)NC2=O)c1 [Compound 2257] ({CH2CO}-Y(Carboxymethyl)[Phe(4-COOH)]D[Phe(3-Me)]L[Bip]V[NMeA][dL]NLVKC-NH2; thioether N-14) | 0.06 |
| C#CC[C@H](NC(=O)CNC(=O)[C@@H]1CSCC(=O)N[C@@H](Cc2ccc(OCC(=O)O)cc2)C(=O)N[C@@H](Cc2ccc(C(=O)O)cc2)C(=O)N[C@@H](CC(=O)O)C(=O)N[C@@H](Cc2c[nH]c3ccccc23)C(=O)N[C@@H](CC(C)C)C(=O)N[C@@H](Cc2ccc(-c3ccccc3)cc2)C(=O)N[C@@H](C(C)C)C(=O)N(C)[C@@H](C)C(=O)N[C@H](CC(C)C)C(=O)N[C@@H](CCN)C(=O)N[C@@H](CC2CCCCC2)C(=O)N[C@@H](C(C)C)C(=O)N[C@@H](CO)C(=O)N1)C(N)=O [Compound 1932] ({CH2CO}-Y(Carboxymethyl)[Phe(4-COOH)]DWL[Bip]V[NMeA][dL][Dab][Cha]VSCG[Pra]-NH2; thioether N-14) | 0.02 |
| CC(C)C[C@@H]1NC(=O)[C@H](Cc2c[nH]c3ccccc23)NC(=O)[C@H](CC(=O)O)NC(=O)[C@H](Cc2ccc(O)cc2)NC(=O)[C@H](Cc2ccccc2)NC(=O)CSC[C@@H](C(=O)N[C@@H](C)C(N)=O)NC(=O)[C@H]([C@@H](C)O)NC(=O)[C@H](C(C)C)NC(=O)[C@H](CC(C)C)NC(=O)[C@H](CC(N)=O)NC(=O)[C@@H](C)NC(=O)[C@H](C)N(C)C(=O)[C@H](C(C)C)NC(=O)[C@H](Cc2ccc(-c3ccccc3)cc2)NC1=O [Compound 1744] ({CH2CO}-FYDWL[Bip]V[NMeA][dA]NLVTCA-NH2; thioether N-14) | 0.02 |
| CC(C)C[C@@H]1NC(=O)[C@H](CCCNC(=N)N)NC(=O)[C@@H](Cc2csc3ccccc23)NC(=O)[C@H](C)N(C)C(=O)[C@H](CCCNC(=N)N)NC(=O)[C@H](Cc2ccc(-c3ccccc3)cc2)NC(=O)[C@H](C(C)C)NC(=O)[C@H](Cc2c[nH]c3ccccc23)NC(=O)[C@H](CC(=O)O)NC(=O)[C@H](Cc2ccc(O)cc2)NC(=O)[C@H](Cc2ccccc2)NC(=O)CSC[C@@H](C(=O)N[C@@H](C)C(N)=O)NC(=O)[C@H]([C@@H](C)O)NC(=O)[C@H](C(C)C)NC1=O [Compound 1180] ({CH2CO}-FYDWV[Bip]R[NMeA][dBta]RLVTCA-NH2; thioether N-14) | 0.51 |
| CC(C)C[C@@H]1NC(=O)[C@H](CCN)NC(=O)[C@@H](CC(C)C)NC(=O)[C@H](C)N(C)C(=O)[C@H](CCCNC(N)=O)NC(=O)[C@H](Cc2ccc(-c3ccccc3)cc2)NC(=O)[C@H](C(C)C)NC(=O)[C@H](Cc2c[nH]c3ccccc23)NC(=O)[C@H](CC(=O)O)NC(=O)[C@H](Cc2ccc(C#N)cc2)NC(=O)[C@H](Cc2ccncc2)NC(=O)CSC[C@@H](C(=O)N[C@@H](C)C(N)=O)NC(=O)[C@H]([C@@H](C)O)NC(=O)[C@H](C(C)C)NC1=O [Compound 1402] ({CH2CO}-[4Pal][Phe(4-CN)]DWV[Bip][Cit][NMeA][dL][Dab]LVTCA-NH2; thioether N-14) | 0.02 |
| CC(C)C[C@@H]1NC(=O)[C@H](CCN)NC(=O)[C@@H](CC(C)C)NC(=O)[C@H](C)N(C)C(=O)[C@H](CCCNC(=N)N)NC(=O)[C@H](Cc2ccc(-c3ccccc3)cc2)NC(=O)[C@H](C(C)C)NC(=O)[C@H](Cc2c[nH]c3ccccc23)NC(=O)[C@H](CC(=O)O)NC(=O)[C@H](Cc2ccc(O)cc2)NC(=O)[C@H](CC(N)=O)NC(=O)CSC[C@@H](C(=O)NCC(N)=O)NC(=O)[C@H]([C@@H](C)O)NC(=O)[C@H](C(C)C)NC1=O [Compound 1249] ({CH2CO}-NYDWV[Bip]R[NMeA][dL][Dab]LVTCG-NH2; thioether N-14) | 0.06 |
| CC(C)C[C@@H]1NC(=O)[C@H](CCCNC(=N)N)NC(=O)[C@@H](Cc2ccc(O)cc2)NC(=O)[C@H](C)N(C)C(=O)[C@H](CCCNC(=N)N)NC(=O)[C@H](Cc2ccc(-c3ccccc3)cc2)NC(=O)[C@H](C(C)C)NC(=O)[C@H](Cc2c[nH]c3ccccc23)NC(=O)[C@H](CC(=O)O)NC(=O)[C@H](Cc2ccc(O)cc2)NC(=O)[C@H](Cc2ccccc2)NC(=O)CSC[C@@H](C(=O)NCC(N)=O)NC(=O)[C@H](CO)NC(=O)[C@H](C(C)C)NC1=O [Compound 1020] ({CH2CO}-FYDWV[Bip]R[NMeA][dY]RLVSCG-NH2; thioether N-14) | 0.07 |
| CC(C)C[C@@H]1NC(=O)[C@H](CCCNC(=N)N)NC(=O)[C@@H](CC(C)C)NC(=O)[C@H](C)N(C)C(=O)[C@H](CCCNC(=N)N)NC(=O)[C@H](Cc2ccc(-c3ccccc3)cc2)NC(=O)[C@H](C(C)C)NC(=O)[C@H](Cc2cccc3ccccc23)NC(=O)[C@H](CC(=O)O)NC(=O)[C@H](Cc2ccc(O)cc2)NC(=O)[C@H](CC(N)=O)NC(=O)CSC[C@@H](C(=O)N[C@@H](C)C(N)=O)NC(=O)[C@H]([C@@H](C)O)NC(=O)[C@H](C(C)C)NC1=O [Compound 1126] ({CH2CO}-NYD[1Nal]V[Bip]R[NMeA][dL]RLVTCA-NH2; thioether N-14) | 0.23 |
| CC(C)C[C@@H]1NC(=O)[C@H](CCCNC(=N)N)NC(=O)[C@@H](Cc2ccncc2)NC(=O)[C@H](C)N(C)C(=O)[C@H](CCCNC(=N)N)NC(=O)[C@H](Cc2ccc(-c3ccccc3)cc2)NC(=O)[C@H](C(C)C)NC(=O)[C@H](Cc2c[nH]c3ccccc23)NC(=O)[C@H](CC(=O)O)NC(=O)[C@H](Cc2ccc(O)cc2)NC(=O)[C@H](Cc2ccccc2)NC(=O)CSC[C@@H](C(=O)N[C@@H](C)C(N)=O)NC(=O)[C@H]([C@@H](C)O)NC(=O)[C@H](C(C)C)NC1=O [Compound 1072] ({CH2CO}-FYDWV[Bip]R[NMeA][d4Pal]RLVTCA-NH2; thioether N-14) | 0.18 |
| CC(C)C[C@@H]1NC(=O)[C@H](CCCNC(=N)N)NC(=O)[C@@H](CC(C)C)NC(=O)[C@H](C)N(C)C(=O)[C@H](CCCNC(=N)N)NC(=O)[C@H](Cc2ccc(-c3ccccc3)cc2)NC(=O)[C@H](C(C)C)NC(=O)[C@H](Cc2ccc(Cl)c(Cl)c2)NC(=O)[C@H](CC(=O)O)NC(=O)[C@H](Cc2ccc(O)cc2)NC(=O)[C@H](CC(N)=O)NC(=O)CSC[C@@H](C(=O)N[C@@H](C)C(N)=O)NC(=O)[C@H]([C@@H](C)O)NC(=O)[C@H](C(C)C)NC1=O [Compound 1195] ({CH2CO}-NYD[Phe(3,4-Cl2)]V[Bip]R[NMeA][dL]RLVTCA-NH2; thioether N-14) | 0.32 |
